Measurements published in patent publication US6133311A, “Method for preventing or treating elevated blood lipid level-related diseases by administering natural phenolic compounds” (priority 1998, dated 2000).

What was measured:
[1] = chemical analysis of blood of rabbits fed a high-cholesterol diet; type: in vivo, New Zealand White rabbits; conditions: for TG (triglyceride): Control 56 ± 38; for TC (total cholesterol): Control 1143 ± 260
Description: Effect of Tannin, Gallic acid or Ellagic acid in an Animal
(Step 1) Administration of tannin, gallic acid or ellagic acid to rabbits
30 three-month-old male New Zealand White rabbits (Yeonam Horticulture and Animal Husbandry College, Korea), each weighing about 2.5 to 2.6 kg, were raised under a condition of temperature 20+2° C., relative humidity 55±5%, and photoperiod 12L/12D. The rabbits were divided into 5 groups and 5 groups of rabbits were fed with 5 different diets, i.e., RC4 diet (Oriental Yeast Co., Japan) containing 1% cholesterol (Control group, 1); 1% cholesterol plus 1 mg/kg Lovastatin® (Merck, U.S.A.) (Lovastatin® group, 2); 1% cholesterol plus 0.1% tannin (3); 1% cholesterol plus 0.1% gallic acid (4); and 1% cholesterol plus 0.1% ellagic acid (5), respectively. RC4 diet comprises 7.6% moisture, 22.8% crude protein, 2.8% crude fat, 8.8% crude ash, 14.4% crude cellulose and 43.6% soluble nitrogen-free substances. Tannin, gallic acid and ellagic acid were purchased from Sigma Chemical Co. (St. Louis, Mo.).
The rabbits were fed for 6 weeks while being allowed free access to the diets and water.
(Step 2) Chemical Analysis of Blood
After six weeks, the rabbits were anesthetized with an intramuscular injection of ketamine (50 mg/kg) in the femoral region and sacrificed. A blood sample was taken from the heart of each rabbit, allowed to stand for 2 hours and centrifuged at 3,000 rpm for 15 minutes and the supernatant serum was separated and stored in a freezer before use.
The chemical analysis of blood was carried out by employing a blood chemical analyzer (CIBA Corning 550 Express, USA) to determine the changes in GOT, GPT, γGTP, total cholesterol, HDL-cholesterol and triglyceride levels.

[2] = biological target: T1, HMG-CoA reductase (Rattus norvegicus, UniProt P51639); assay: HMG-CoA reductase inhibition in liver microsomes of fed rats; type: biochemical; conditions: liver microsomes of rats fed 0.1% compound, vs Control
T1 construct: from tissue; host or cells: rat liver microsomes
T1 sequence (P51639 1-887): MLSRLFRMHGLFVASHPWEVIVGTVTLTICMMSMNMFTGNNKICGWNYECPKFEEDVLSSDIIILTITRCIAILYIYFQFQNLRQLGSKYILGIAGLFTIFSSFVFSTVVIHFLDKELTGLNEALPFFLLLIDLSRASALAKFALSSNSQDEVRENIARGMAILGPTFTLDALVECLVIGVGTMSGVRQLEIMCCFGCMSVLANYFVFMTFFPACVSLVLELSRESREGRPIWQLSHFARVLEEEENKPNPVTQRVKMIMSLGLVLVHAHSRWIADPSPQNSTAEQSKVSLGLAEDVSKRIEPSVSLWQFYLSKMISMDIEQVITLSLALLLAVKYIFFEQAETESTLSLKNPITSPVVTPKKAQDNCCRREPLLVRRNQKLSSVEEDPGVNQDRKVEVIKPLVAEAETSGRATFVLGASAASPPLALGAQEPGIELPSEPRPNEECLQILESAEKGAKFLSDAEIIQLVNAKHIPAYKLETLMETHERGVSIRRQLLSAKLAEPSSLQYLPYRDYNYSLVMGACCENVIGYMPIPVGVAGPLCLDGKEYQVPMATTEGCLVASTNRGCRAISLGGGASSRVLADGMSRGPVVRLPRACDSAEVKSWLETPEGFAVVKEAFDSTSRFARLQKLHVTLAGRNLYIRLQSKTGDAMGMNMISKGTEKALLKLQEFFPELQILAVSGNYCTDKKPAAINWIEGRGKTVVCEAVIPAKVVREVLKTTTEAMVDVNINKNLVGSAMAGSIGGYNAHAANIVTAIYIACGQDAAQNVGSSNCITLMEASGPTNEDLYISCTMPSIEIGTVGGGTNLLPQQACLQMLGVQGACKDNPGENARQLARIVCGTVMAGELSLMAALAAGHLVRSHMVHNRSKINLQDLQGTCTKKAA
Description: Activity of tannin or gallic acid in HMG-CoA Reductase Inhibition
In order to determine the activity of HMG-CoA reductase, Hulcher's method was employed after some modification (see J. Lipid Res., 14, 625-641 (1973)). In this method, the concentration of the coenzyme-A (CoA-SH), which is produced when HMG-COA is reduced to a mevalonate salt by the action of HMG-COA reductase, is determined by spectroscopy and the activity of HMG-CoA reductase is calculated therefrom.
(Step 1) Preparation of microsomes
3 g of liver tissue taken from each group of rats of Example 2 was washed successively with 100 ml of a cold Saline (0.15M NaCl) and 100 ml of a cold buffer solution A (0.1M triethanolamine, HCl/0.2M EDTA/2 mM dithiothreitol (DTT)). The cold buffer solution A was added to the liver tissue in an amount of 2 ml per 1 g of the liver tissue and the mixture was homogenized with a homogenizer. […]
Then, the reactant was mixed with 20 μl of DTNB buffer solution (3mM DTNB/0.1M triethanolamine/0.2M EDTA, pH 7.4) and the absorbance of the mixture was determined at 412 nm to calculate the amount of CoA-SH (activity of HMG-COA reductase).
The extent of inhibition of HMG-CoA reductase activity by tannin and gallic acid were calculated based on the above result.

[3] = rabbits, 1% cholesterol diet plus 0.1% compound (Lovastatin 1 mg/kg), 6 weeks

Q: What does the source list for `O=C(O)c1cc(O)c(O)c(O)c1` [Gallic acid, gallic acid]?
A: effect on the liver function (adverse) ([1]; general statement): do not adversely affect on the liver function; γGTP ([1]; rabbits, 1% cholesterol diet plus 0.1% compound (Lovastatin 1 mg/kg), 6 weeks, Control 4.2 ± 0.9): 7.0 ± 2 IU/l; TG (triglyceride) [1, 3]: 27 ± 11 mg/dL; GPT ([1]; rabbits, 1% cholesterol diet plus 0.1% compound (Lovastatin 1 mg/kg), 6 weeks, Control 65 ± 9): 20 ± 10 IU/l; GOT ([1]; rabbits, 1% cholesterol diet plus 0.1% compound (Lovastatin 1 mg/kg), 6 weeks, Control 77 ± 8): 60 ± 9 IU/l; TC (total cholesterol) [1, 3]: 1150 ± 100 mg/dL; lipid metabolism and liver function ([1]; rabbits, 6 weeks): can improve; Inhibition of HMG-CoA reductase activity [2]: 6.0%

Q: For tannin, which “effect on the liver function (adverse)” value ([1]; rabbit, in vivo) is on record?
A: do not adversely affect on the liver function

Q: And the “TG (triglyceride)” value [1, 3]?
A: 25 ± 10 mg/dL

Q: And the “TC (total cholesterol)” value [1, 3]?
A: 1120 ± 211 mg/dL

Q: And the “lipid metabolism and liver function” value ([1]; rabbits, 6 weeks)?
A: can improve

Q: What about the “Inhibition of HMG-CoA reductase activity” value [2] of the same compound?
A: 23.5%
